US20060069132A1, “Azolecarboxamide herbicides” (priority 2004, published 2006)

Legend:
blackgrass = assay: Test B postemergence herbicide test; format: in vivo, Alopecurus myosuroides
Procedure, shortened: (§1)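 Formulated test chemicals went onto postemergence plants measuring 2 to 18 cm, at one to four leaves. For the paddy assay, species had reached two leaves. Scoring took place 13–15 days later by eye, relative to untreated plants, using 0 for no effect up to 100 for full control.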

ducksalad = assay: Test B flooded paddy test; format: in vivo, Heteranthera limosa; conditions: 1000 g ai/ha, scale 0 to 100 (0 no effect, 100 complete control)
Procedure, shortened: as §1

pigweed = assay: Test B pre-/postemergence herbicide test; format: in vivo, Amaranthus retroflexus
Procedure, shortened: (§2)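 Plants compared with untreated controls 13–15 days post-treatment and given a visual 0–100 injury score. Applications: preemergence to seeds; postemergence at 1- to 4-leaf (2–18 cm); paddy species flooded, 2-leaf stage. Vehicle non-phytotoxic, surfactant included.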

wild oat = assay: Test B postemergence herbicide test; format: in vivo, Avena fatua
Procedure, shortened: (§3)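 Visual ratings, 0 (no effect) to 100 (complete control), made versus controls after 13–15 d greenhouse. Paddy plants treated at 2-leaf stage; postemergence plants at 1- to 4-leaf stage, 2–18 cm tall.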

morningglory = assay: Test B pre-/postemergence herbicide test; format: in vivo, Ipomoea coccinea
Procedure, shortened: as §2

barnyardgrass [1] = assay: Test B flooded paddy test; format: in vivo, Echinochloa crus-galli; conditions: 1000 g ai/ha, scale 0 to 100 (0 no effect, 100 complete control)
Procedure, shortened: as §1

velvetleaf = assay: Test B pre-/postemergence herbicide test; format: in vivo, Abutilon theophrasti
Procedure, shortened: as §2

[2] = tested on: small flower umbrella sedge; assay: Test B flooded paddy test; format: in vivo, Cyperus difformis; conditions: 1000 g ai/ha, scale 0 to 100 (0 no effect, 100 complete control)
Procedure, shortened: as §1

giant foxtail = assay: Test B pre-/postemergence herbicide test; format: in vivo, Setaria faberi
Procedure, shortened: as §2

lambsquarters = assay: Test B pre-/postemergence herbicide test; format: in vivo, Chenopodium album
Procedure, shortened: as §2

barnyardgrass [3] = assay: Test B pre-/postemergence herbicide test; format: in vivo, Echinochloa crus-galli
Procedure, shortened: as §2

wheat = assay: Test B postemergence herbicide test; format: in vivo, Triticum aestivum; design: key to Wheat plant response rating: 0 = no effect, 100 = complete control; conditions: postemergence
Procedure, shortened: as §3

rice = assay: Test B flooded paddy test; format: in vivo, Oryza sativa; conditions: 1000 g ai/ha, scale 0 to 100 (0 no effect, 100 complete control)
Procedure, shortened: as §1

corn = assay: Test B pre-/postemergence herbicide test; format: in vivo, Zea mays
Procedure, shortened: as §2

cocklebur = assay: Test B pre-/postemergence herbicide test; format: in vivo, Xanthium strumarium
Procedure, shortened: as §2

[4] = postemergence, 125 g ai/ha; visual rating, scale 0 (no effect) to 100 (complete control)
[5] = postemergence, 500 g ai/ha; visual rating, scale 0 (no effect) to 100 (complete control)
[6] = 500 g ai/ha; visual rating 0-100, 0 no effect, 100 complete control; preemergence
[7] = preemergence, 125 g ai/ha; 0 to 100 scale, 0 is no effect, 100 is complete control
[8] = 500 g ai/ha, visual rating, scale 0 (no effect) to 100 (complete control)
[9] = 125 g ai/ha; visual rating, scale 0 (no effect) to 100 (complete control); postemergence
[10] = postemergence, 500 g ai/ha; scale 0 to 100, 0 is no effect, 100 is complete control
[11] = 125 g ai/ha; 0 is no effect, 100 is complete control; preemergence
[12] = 500 g ai/ha; visual rating, 0 = no effect, 100 = complete control; preemergence

CCn1nc(C(C)(C)C)cc1C(=O)Nc1cc(C(=O)NCC2CC2)ccn1 [Compound 155]
Blackgrass plant response rating (blackgrass; [4]): 40 | Blackgrass plant response rating (blackgrass; [5]): 50 | Ducksalad plant response rating (ducksalad; visual rating, 13 to 15 days): 100 | Plant response rating, Pigweed (pigweed; [6]): 100 | Pigweed plant response rating (pigweed; [4]): 60 | Pigweed plant response rating (pigweed; [5]): 100 | Plant response rating, Pigweed (pigweed; [7]): 100 | Oat, Wild plant response rating (wild oat; [4]): 40 | Oat, Wild plant response rating (wild oat; [5]): 50 | Plant response rating, Morningglory (morningglory; [6]): 40 | Morningglory plant response rating (morningglory; [4]): 30 | Morningglory plant response rating (morningglory; [5]): 60 | Plant response rating, Morningglory (morningglory; [7]): 20 | Barnyardgrass plant response rating (barnyardgrass [1]; visual rating, 13 to 15 days): 70 | Plant response rating, Velvetleaf (velvetleaf; [6]): 70 | Velvetleaf plant response rating (velvetleaf; [4]): 20 | Velvetleaf plant response rating (velvetleaf; [5]): 70 | Plant response rating, Velvetleaf (velvetleaf; [7]): 20 | Sedge, Umbrella plant response rating ([2]; visual rating, 13 to 15 days): 90 | Plant response rating, Foxtail, Giant (giant foxtail; [6]): 90 | Foxtail, Giant plant response rating (giant foxtail; [4]): 20 | Foxtail, Giant plant response rating (giant foxtail; [5]): 30 | Plant response rating, Foxtail, Giant (giant foxtail; [7]): 20 | Plant response rating, Lambsquarters (lambsquarters; [6]): 100 | Lambsquarters plant response rating (lambsquarters; [4]): 70 | Lambsquarters plant response rating (lambsquarters; [5]): 90 | Plant response rating, Lambsquarters (lambsquarters; [7]): 100 | Plant response rating, Barnyardgrass (barnyardgrass [3]; [6]): 90 | Barnyardgrass plant response rating (barnyardgrass [3]; [4]): 10 | Barnyardgrass plant response rating (barnyardgrass [3]; [5]): 20 | Plant response rating, Barnyardgrass (barnyardgrass [3]; [7]): 60 | Wheat plant response rating (wheat; [8]): 20 | Rice plant response rating (rice; visual rating, 13 to 15 days): 20 | Plant response rating, Corn (corn; [6]): 30 | Corn plant response rating (corn; [4]): 10 | Corn plant response rating (corn; [5]): 20 | Plant response rating, Corn (corn; [7]): 0 | Plant response rating, Cocklebur (cocklebur; [6]): 30 | Cocklebur plant response rating (cocklebur; [4]): 60 | Cocklebur plant response rating (cocklebur; [5]): 80 | Plant response rating, Cocklebur (cocklebur; [7]): 0

CCN(CC)C(=O)c1cccc(NC(=O)c2cc(C(C)(C)C)nn2C)n1 [Compound 314]
Blackgrass plant response rating (blackgrass; [9]): 10 | Blackgrass plant response rating (blackgrass; [10]): 20 | Ducksalad plant response rating (ducksalad): 0 | Plant response rating (0 to 100 scale), Pigweed (pigweed; [11]): 90 | Pigweed plant response rating (pigweed; [9]): 60 | Plant response rating, Pigweed (pigweed; [12]): 100 | Pigweed plant response rating (pigweed; [10]): 70 | Oat, Wild plant response rating (wild oat; [9]): 10 | Oat, Wild plant response rating (wild oat; [10]): 30 | Plant response rating (0 to 100 scale), Morningglory (morningglory; [11]): 0 | Morningglory plant response rating (morningglory; [9]): 20 | Plant response rating, Morningglory (morningglory; [12]): 20 | Morningglory plant response rating (morningglory; [10]): 80 | Barnyardgrass plant response rating (barnyardgrass [1]): 30 | Plant response rating (0 to 100 scale), Velvetleaf (velvetleaf; [11]): 20 | Velvetleaf plant response rating (velvetleaf; [9]): 20 | Plant response rating, Velvetleaf (velvetleaf; [12]): 100 | Velvetleaf plant response rating (velvetleaf; [10]): 30 | Sedge, Umbrella plant response rating [2]: 60 | Plant response rating (0 to 100 scale), Foxtail, Giant (giant foxtail; [11]): 30 | Foxtail, Giant plant response rating (giant foxtail; [9]): 20 | Plant response rating, Foxtail, Giant (giant foxtail; [12]): 100 | Foxtail, Giant plant response rating (giant foxtail; [10]): 20 | Plant response rating (0 to 100 scale), Lambsquarters (lambsquarters; [11]): 20 | Lambsquarters plant response rating (lambsquarters; [9]): 30 | Plant response rating, Lambsquarters (lambsquarters; [12]): 80 | Lambsquarters plant response rating (lambsquarters; [10]): 60 | Plant response rating (0 to 100 scale), Barnyardgrass (barnyardgrass [3]; [11]): 10 | Barnyardgrass plant response rating (barnyardgrass [3]; [9]): 10 | Plant response rating, Barnyardgrass (barnyardgrass [3]; [12]): 90 | Barnyardgrass plant response rating (barnyardgrass [3]; [10]): 30 | Wheat plant response rating (wheat; 125 g ai/ha, visual rating, scale 0 (no effect) to 100 (complete control)): 0 | Wheat plant response rating (wheat; 500 g ai/ha, scale 0 to 100, 0 is no effect, 100 is complete control): 10 | Rice plant response rating (rice): 0 | Plant response rating (0 to 100 scale), Corn (corn; [11]): 0 | Corn plant response rating (corn; [9]): 10 | Plant response rating, Corn (corn; [12]): 10 | Corn plant response rating (corn; [10]): 20 | Plant response rating (0 to 100 scale), Cocklebur (cocklebur; [11]): 0 | Cocklebur plant response rating (cocklebur; [9]): 10 | Plant response rating, Cocklebur (cocklebur; [12]): 0 | Cocklebur plant response rating (cocklebur; [10]): 30

C#CCNC(=O)c1cccc(NC(=O)c2cc(C(C)(C)C)nn2CC)n1 [Compound 147]
Blackgrass plant response rating (blackgrass; [4]): 10 | Blackgrass plant response rating (blackgrass; [5]): 20 | Ducksalad plant response rating (ducksalad; visual rating, 13 to 15 days): 80 | Plant response rating, Pigweed (pigweed; [6]): 100 | Pigweed plant response rating (pigweed; [4]): 80 | Pigweed plant response rating (pigweed; [5]): 90 | Plant response rating, Pigweed (pigweed; [7]): 100 | Oat, Wild plant response rating (wild oat; [4]): 0 | Oat, Wild plant response rating (wild oat; [5]): 30 | Plant response rating, Morningglory (morningglory; [6]): 30 | Morningglory plant response rating (morningglory; [4]): 0 | Morningglory plant response rating (morningglory; [5]): 30 | Plant response rating, Morningglory (morningglory; [7]): 0 | Barnyardgrass plant response rating (barnyardgrass [1]; visual rating, 13 to 15 days): 60 | Plant response rating, Velvetleaf (velvetleaf; [6]): 80 | Velvetleaf plant response rating (velvetleaf; [4]): 60 | Velvetleaf plant response rating (velvetleaf; [5]): 60 | Plant response rating, Velvetleaf (velvetleaf; [7]): 30 | Sedge, Umbrella plant response rating ([2]; visual rating, 13 to 15 days): 90 | Plant response rating, Foxtail, Giant (giant foxtail; [6]): 100 | Foxtail, Giant plant response rating (giant foxtail; [4]): 30 | Foxtail, Giant plant response rating (giant foxtail; [5]): 40 | Plant response rating, Foxtail, Giant (giant foxtail; [7]): 70 | Plant response rating, Lambsquarters (lambsquarters; [6]): 100 | Lambsquarters plant response rating (lambsquarters; [4]): 80 | Lambsquarters plant response rating (lambsquarters; [5]): 90 | Plant response rating, Lambsquarters (lambsquarters; [7]): 90 | Plant response rating, Barnyardgrass (barnyardgrass [3]; [6]): 90 | Barnyardgrass plant response rating (barnyardgrass [3]; [4]): 20 | Barnyardgrass plant response rating (barnyardgrass [3]; [5]): 30 | Plant response rating, Barnyardgrass (barnyardgrass [3]; [7]): 70 | Wheat plant response rating (wheat; [8]): 20 | Rice plant response rating (rice; visual rating, 13 to 15 days): 50 | Plant response rating, Corn (corn; [6]): 10 | Corn plant response rating (corn; [4]): 10 | Corn plant response rating (corn; [5]): 30 | Plant response rating, Corn (corn; [7]): 10 | Plant response rating, Cocklebur (cocklebur; [6]): 10 | Cocklebur plant response rating (cocklebur; [4]): 0 | Cocklebur plant response rating (cocklebur; [5]): 80 | Plant response rating, Cocklebur (cocklebur; [7]): 0
